Values quoted from earlier work in patent US7479481B2, “Treatment of ocular diseases and disorders using lantibiotic compositions” (Molichem Medicines, Inc., priority 2004, dated 2009).

Test system: clatharin-coated vesicle acidification
Settings: clatharin-coated vesicles; Stone et al., J. Biol. Chem. 259: 2701-2703 (1984)

Substance: duramycin
- inhibition of the proton translocation facilitated by chloride translocation: up to 50%
